# Assay results as given in ChEMBL document CHEMBL1125432, “Generation of N-methyl-D-aspartate agonist and competitive antagonist pharmacophore models. Design and synthesis of phosphonoalkyl-substituted tetrahydroisoquinolines as novel antagonists” (J Med Chem, 1992).
# Biological target: Glutamate NMDA receptor
# Assay: Displacement of [3H]CPP from N-methyl-D-aspartate glutamate receptor in rat brain membrane
# Format: cell membranes
row,IC50 [µM],Compound
1,> 13.3,O=C(O)[C@H]1CN(C(c2ccccc2)P(=O)(O)O)CCN1 (some centres not stated)
2,10,N[C@H](CC(=O)O)C(=O)O [D-ASPARTATE]
3,14.5,O=C(O)CCc1cccc2c1CCNC2C(=O)O (configuration not stated)
4,> 100,O=C(O)C1CN(Cc2ccccc2CP(=O)(O)O)CCN1 (configuration not stated)
5,37.2,O=C(O)C1NCCc2ccc(CP(=O)(O)O)cc21 (configuration not stated)
6,50,NC(C(=O)O)c1cc(CP(=O)(O)O)cc(-c2ccccc2)c1 (configuration not stated)
7,3.3,NC(Cc1cccc(CP(=O)(O)O)c1)C(=O)O (configuration not stated)
8,25,NC(C(=O)O)c1cccc(C(=O)O)c1 (configuration not stated)
9,10,N[C@@H](CC(=O)O)C(=O)O [ASPARTIC ACID]
10,5.2,O=C(O)CNCc1ccc(CP(=O)(O)O)cc1
11,61,O=C(O)C1NCCc2cc(CP(=O)(O)O)ccc21 (configuration not stated)
12,> 100,NC(C(=O)O)c1ccc(P(=O)(O)O)cc1 (configuration not stated)
13,> 100,O=C(O)C1CN(Cc2ccccc2P(=O)(O)O)CCN1 (configuration not stated)
14,> 100,Cc1c(CP(=O)(O)O)ccnc1C(=O)O

# Continued, molecule first:
row,Compound,IC50 [µM]
1,O=C(O)C1CN(CCCP(=O)(O)O)C(=O)CN1 (configuration not stated),32
2,NC(CCCCC(N)C(=O)O)C(=O)O (configuration not stated),> 100
3,O=C(O)C1NCCC2CCC(P(=O)(O)O)CC21 (configuration not stated),5.6
4,N[C@@H](CNCP(=O)(O)O)C(=O)O,4.3
5,O=C(O)CNC/C=C/CP(=O)(O)O,1.2
6,O=C1CN(CCCP(=O)(O)O)CC(C(=O)O)N1 (configuration not stated),30
7,NC(CCCCP(=O)(O)O)C(=O)O (configuration not stated),42
8,NC(CCCCCP(=O)(O)O)C(=O)O (configuration not stated) [AP-7],0.77
9,NC(CCCP(=O)(O)O)C(=O)O (configuration not stated),0.28
10,N[C@H](C(=O)O)[C@H]1C[C@H]1C(=O)O,10
11,NC(CCP(=O)(O)O)C(=O)O (configuration not stated),> 100
12,NC(CC(=O)NCP(=O)(O)O)C(=O)O (configuration not stated),2.8
13,N[C@H](C(=O)O)[C@@H]1C[C@@H]1C(=O)O,< 0.1
14,N[C@@]1(C(=O)O)CC[C@H](C(=O)O)C1,10
15,CC([C@H]1CCN[C@H](C(=O)O)C1)P(=O)(O)O (some centres not stated),0.8

# Biological target: Glutamate NMDA receptor
# Assay: Compound was evaluated for its ability to displace [3H]Glu/[3H]-AP5 from rat brain membrane
# Format: tissue-based
row,IC50 [µM],Compound
1,100,O=C(O)c1cccnc1C(=O)O [QUINOLINIC ACID]
2,110,Cc1o[nH]c(=O)c1C(N)C(=O)O (configuration not stated)

# The next lines start with the molecule.
row,Compound,IC50 [µM]
1,O=C(O)[C@H]1CCCN[C@@H]1C(=O)O,10
2,O=C(O)[C@H]1CCN[C@H](C(=O)O)C1,100
3,C=C(C)[C@@H]1CN[C@@H](C(=O)O)[C@@H]1CC(=O)O,100
4,O=C(O)[C@H]1NCCC[C@H]1C(=O)O,100

# Biological target: T1, Glutamate NMDA receptor (Rattus norvegicus) (UniProt P35439+Q00959+Q00960+Q00961+Q62645+Q8VHN2+Q9R1M7)
# Assay: Ability to displace [3H]CPP from NMDA receptor in rat brain membrane was evaluated at 10e-4 M
# Format: cell membranes
row,inhibition [%],Compound
1,0,O=C(O)C1Cc2ccc(P(=O)(O)O)cc2CN1 (configuration not stated)
2,35,NC(C(=O)O)c1cccc(CCP(=O)(O)O)c1 (configuration not stated)
3,0,O=C(O)C1Cc2ccc(CP(=O)(O)O)cc2CN1 (configuration not stated)
4,3,NC(Cc1ccccc1P(=O)(O)O)C(=O)O (configuration not stated)
5,0,O=C(O)C1Cc2ccc(CCP(=O)(O)O)cc2CN1 (configuration not stated)

# Biological target: T1, Glutamate NMDA receptor (Rattus norvegicus)
# Assay: Ability to displace [3H]CPP from N-methyl-D-aspartate glutamate receptor in rat brain membrane was evaluated at 10e-4 M
# Format: cell membranes
row,inhibition [%],Compound
1,1,NC(Cc1ccc(CP(=O)(O)O)cc1)C(=O)O (configuration not stated)
2,0,O=C(O)C1NCCc2c1cccc2P(=O)(O)O (configuration not stated)
3,22,O=C(O)C1NCCc2ccc(CCP(=O)(O)O)cc21 (configuration not stated)
4,10,NC(Cc1ccc(P(=O)(O)O)cc1)C(=O)O (configuration not stated)

# Biological target: Glutamate NMDA receptor
# Assay: Ability to displace [3H]CPP from NMDA receptor in rat brain membrane
# Format: cell membranes
row,IC50 [µM],Compound
1,83,O=C(O)C1CN(Cc2cccc(P(=O)(O)O)c2)CCN1 (configuration not stated)
2,5.8,O=C(O)[C@H]1CN(C(c2ccccc2)P(=O)(O)O)CCN1 (some centres not stated)
3,0.27,O=C(O)C1Cc2c(CCP(=O)(O)O)cccc2CN1 (configuration not stated)
4,13,NC(C(=O)O)C1CCC(CP(=O)(O)O)CC1 (configuration not stated)
5,0.85,O=C(O)C1CC(CP(=O)(O)O)c2ccccc2N1 (configuration not stated)
6,> 100,NC(Cc1ccc(CP(=O)(O)O)cc1)C(=O)O (configuration not stated)
7,21,Cc1cc(C(N)C(=O)O)c(C)cc1CP(=O)(O)O (configuration not stated)
8,> 100,NC(C(=O)O)c1ccc(CCCP(=O)(O)O)cc1 (configuration not stated)
9,24,NC(C(=O)O)c1ccc(CP(=O)(O)O)cc1Br (configuration not stated)
10,2.7,O=C(O)C1NCCc2ccc(P(=O)(O)O)cc21 (configuration not stated)
11,> 100,O=C(O)CNCc1ccccc1CP(=O)(O)O
12,2.8,NC(Cc1cccc(CP(=O)(O)O)c1)C(=O)O (configuration not stated)
13,5.9,NC(C(=O)O)c1ccc(CP(=O)(O)O)o1 (configuration not stated)
14,> 100,NC(C(=O)O)c1cccc(CCP(=O)(O)O)c1 (configuration not stated)
15,74,NC(C(=O)O)c1ccc(CP(=O)(O)O)c2ccccc12 (configuration not stated)
16,> 100,NC(C(=O)O)c1ccc(CCP(=O)(O)O)cc1 (configuration not stated)
17,> 100,O=C(O)CNCc1cccc(P(=O)(O)O)c1
18,1.95,O=C(O)C1Cc2c(cccc2CP(=O)(O)O)CN1 (configuration not stated)
19,> 100,NC(Cc1cccc(CCP(=O)(O)O)c1)C(=O)O (configuration not stated)
20,0.99,NC(C(=O)O)c1ccc(CP(=O)(O)O)cc1 (configuration not stated)
21,10,Cc1cc(CP(=O)(O)O)cc(C(=O)O)n1
22,4.08,O=C(O)C1Cc2cc(CP(=O)(O)O)ccc2CN1 (configuration not stated)
23,0.82,O=C(O)C1Cc2c(cccc2P(=O)(O)O)CN1 (configuration not stated)
24,> 100,NC(Cc1ccccc1P(=O)(O)O)C(=O)O (configuration not stated)
25,8.4,NC(Cc1ccccc1CP(=O)(O)O)C(=O)O (configuration not stated)
26,2.2,O=C(O)CNCc1cccc(CP(=O)(O)O)c1
27,> 100,NC(Cc1ccc(P(=O)(O)O)cc1)C(=O)O (configuration not stated)
28,50,NC(Cc1cccc(C(Br)P(=O)(O)O)c1)C(=O)O (configuration not stated)
29,0.66,NC(C(=O)O)c1ccc(CP(=O)(O)O)s1 (configuration not stated)

# The remaining lines, values behind:
row,Compound,IC50 [µM]
1,O=C(O)C1CC(CCP(=O)(O)O)C2CCCCC2N1 (configuration not stated),100
2,O=C(O)C1CN(CCCP(=O)(O)O)CCN1 (configuration not stated),0.082
3,NC(C(=O)O)c1cc(=O)[nH]o1 (configuration not stated),10
4,O=C(O)Cc1cccnc1C(=O)O,10
5,NC(C#CP(=O)(O)O)C(=O)O (configuration not stated),0.45
6,O=C(O)C1CN(C2CCC(P(=O)(O)O)C2)CCN1 (configuration not stated),1.6
7,O=C(O)C1CC(CP(=O)(O)O)C2CCCCC2N1 (configuration not stated),9.2
8,NC(C[S+]([O-])CP(=O)(O)O)C(=O)O (configuration not stated),0.14
9,O=P(O)(O)CCCN1CCNCC1,> 100
10,NC(C/C=C/P(=O)(O)O)C(=O)O (configuration not stated),> 10
11,C/C(=C\C(N)C(=O)O)CP(=O)(O)O (configuration not stated) [CGP-37849],0.035
12,O=C(O)[C@@H]1C[C@H](CP(=O)(O)O)CCN1 [SELFOTEL],0.054
13,O=C(O)CCCN1CCN[C@@H](C(=O)O)C1,0.79
14,NC(CCCC(=O)O)C(=O)O (configuration not stated),13
